biological target: T1, glucosylceramide synthase (Homo sapiens, UniProt Q16739); experiment: Glucosylceramide synthase (GCS) enzyme assay, microsome fraction, C8 glucosylceramide quantified by Rapidfire MS/MS; format: biochemical; details: test compound 10 μM; 1.7 μM UDP-glucose, 3 μM C8 ceramide; room temperature 60 min; read-out: GCS enzyme inhibitory rate at 10 μM (%) (% of control)
T1 construct: made in house; host or cells: Expi293F cells (transient expression, pcDNA3.3-TOPO vector); microsome fraction used as enzyme source
T1 sequence (Q16739 1-394): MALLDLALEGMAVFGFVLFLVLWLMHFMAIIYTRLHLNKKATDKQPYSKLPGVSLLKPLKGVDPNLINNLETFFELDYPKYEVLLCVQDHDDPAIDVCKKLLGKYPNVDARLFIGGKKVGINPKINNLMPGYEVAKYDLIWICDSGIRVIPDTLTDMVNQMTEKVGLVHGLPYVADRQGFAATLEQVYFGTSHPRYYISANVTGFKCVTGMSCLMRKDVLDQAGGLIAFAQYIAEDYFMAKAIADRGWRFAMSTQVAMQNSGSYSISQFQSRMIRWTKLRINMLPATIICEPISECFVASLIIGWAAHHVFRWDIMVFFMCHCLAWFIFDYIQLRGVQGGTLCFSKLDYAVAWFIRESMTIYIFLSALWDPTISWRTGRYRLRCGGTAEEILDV
Method in brief: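 Test compound, 10 μM final, was run against human GCS from transfected Expi293F microsome fractions, using substrate solution of 6 μM C8 ceramide (in DOPC liposomes) plus 3.4 μM UDP-glucose, pH 7.5 Tris buffer, 60 min, room temperature. Product C8 glucosylceramide measured by Rapidfire MS/MS against an internal standard, % inhibition referenced to no-enzyme and DMSO wells.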

| SMILES | inhibition at 10 µM [%] |
| --- | --- |
| CC(C)(O)c1ccc(N2Cc3c(ccnc3-c3cc(F)c(F)cc3OCC(F)(F)F)C2=O)cc1 [Example 322, 4-[4,5-difluoro-2-(2,2,2-trifluoroethoxy)phenyl]-2-[4-(2-hydroxypropan-2-yl)phenyl]-2,3-dihydro-1H-pyrrolo [3,4-c]pyridin-1-one] | 95 |
| CC(C)(O)c1ccc(N2Cc3c(ccnc3-c3cc(F)ccc3OCC(F)(F)F)C2=O)cc1 [Example 323, 4-[5-fluoro-2-(2,2,2-trifluoroethoxy)phenyl]-2-[4-(2-hydroxypropan-2-yl)phenyl]-2,3-dihydro-1H-pyrrolo[3,4-c]pyridin-1-one] | 99 |
| Cc1cc2c(c(-c3ccccc3OCC(F)(F)F)n1)CN(c1ccc(C(C)(C)O)nc1)C2=O [Example 326, 2-[6-(2-hydroxypropan-2-yl)pyridin-3-yl]-6-methyl-4-[2-(2,2,2-trifluoroethoxy)phenyl]-2,3-dihydro-1H-pyrrolo[3,4-c]pyridin-1-one] | 99 |
| CC(C)(O)c1ccc(N2Cc3c(cc(C(F)F)nc3-c3ccccc3OCC(F)(F)F)C2=O)cc1 [Example 327, 6-(difluoromethyl)-2-[4-(2-hydroxypropan-2-yl)phenyl]-4-[2-(2,2,2-trifluoroethoxy)phenyl]-2,3-dihydro-1H-pyrrolo[3,4-c]pyridin-1-one] | 100 |
| CC(C)(O)c1ccc(N2Cc3c(cc(C(F)F)nc3-c3ccccc3OCC(F)(F)F)C2=O)cn1 [Example 328, 6-(difluoromethyl)-2-[6-(2-hydroxypropan-2-yl)pyridin-3-yl]-4-[2-(2,2,2-trifluoroethoxy)phenyl]-2,3-dihydro-1H-pyrrolo[3,4-c]pyridin-1-one] | 100 |
| COCc1cc2c(c(-c3ccccc3OCC(F)(F)F)n1)CN(c1ccc(C(C)(C)O)cc1)C2=O [Example 330, 2-[4-(2-hydroxypropan-2-yl)phenyl]-6-(methoxymethyl)-4-[2-(2,2,2-trifluoroethoxy)phenyl]-2,3-dihydro-1H-pyrrolo[3,4-c]pyridin-1-one] | 100 |
| COC(=O)c1ccc(N2CC3=C(OC[C@H](C)N=C3c3ccccc3OCC(F)(F)F)C2=O)cc1 [Example 331, methyl 4-{(3S)-3-methyl-8-oxo-5-[2-(2,2,2-trifluoroethoxy)phenyl]-2,3,6,8-tetrahydro-7H-pyrrolo [3,4-f][1,4]oxazepin-7-yl}benzoate] | 91 |
| COC(=O)c1ccc(N2CC3=C(OC[C@@H](C)N=C3c3ccccc3OCC(F)(F)F)C2=O)cc1 [Example 333, methyl 4-{(3R)-3-methyl-8-oxo-5-[2-(2,2,2-trifluoroethoxy)phenyl]-2,3,6,8-tetrahydro-7H-pyrrolo [3,4-f][1,4]oxazepin-7-yl}benzoate] | 97 |
| CC(=O)c1ccc(N2CC3=C(OC[C@H](C)N=C3c3ccccc3OCC(F)(F)F)C2=O)cc1 [Example 334, (3S)-7-(4-acetylphenyl)-3-methyl-5-[2-(2,2,2-trifluoroethoxy)phenyl]-2,3,6,7-tetrahydro-8H-pyrrolo [3,4-f][1,4]oxazepin-8-one] | 88 |
| COC(=O)c1ccc(N2CC3=C(OCCN=C3c3ccccc3OCC(F)(F)F)C2=O)cc1 [Example 335, methyl 4-{8-oxo-5-[2-(2,2,2-trifluoroethoxy)phenyl]-2,3,6,8-tetrahydro-7H-pyrrolo[3,4-f] [1,4]oxazepin-7-yl}benzoate] | 95 |
| CC(C)(O)c1ccc(N2Cc3c(cc(Br)c(=O)n3-c3ccccc3OCC(F)(F)F)C2=O)cc1 [Example 336, 3-bromo-6-[4-(2-hydroxypropan-2-yl)phenyl]-1-[2-(2,2,2-trifluoroethoxy)phenyl]-6,7-dihydro-1H-pyrrolo[3,4-b]pyridine-2,5-dione] | 98 |
| Cc1cc2c(n(-c3ccccc3OCC(F)(F)F)c1=O)CN(c1ccc(C(C)(C)O)cc1)C2=O [Example 337, 6-[4-(2-hydroxypropan-2-yl)phenyl]-3-methyl-1-[2-(2,2,2-trifluoroethoxy)phenyl]-6,7-dihydro-1H-pyrrolo[3,4-b]pyridine-2,5-dione] | 98 |
| Cc1cc2c(c(-c3ccccc3OCC(F)(F)F)n1)CN(c1ccc(C(F)(F)CO)cc1)C2=O [Example 338, 2-[4-(1,1-difluoro-2-hydroxyethyl)phenyl]-6-methyl-4-[2-(2,2,2-trifluoroethoxy)phenyl]-2,3-dihydro-1H-pyrrolo [3,4-c]pyridin-1-one] | 100 |
| CC(C)(O)C(F)(F)c1ccc(N2Cc3c(ccnc3-c3ccccc3OCC(F)F)C2=O)cc1 [Example 339, 4-[2-(2,2-difluoroethoxy)phenyl]-2-[4-(1,1-difluoro-2-hydroxy-2-methylpropyl)phenyl]-2,3-dihydro-1H-pyrrolo[3,4-c]pyridin-1-one] | 99 |
| CC(C)(O)C(F)(F)c1ccc(N2Cc3c(ccnc3-c3ccccc3OCC(F)(F)F)C2=O)cc1 [Example 340, 2-[4-(1,1-difluoro-2-hydroxy-2-methylpropyl)phenyl]-4-[2-(2,2,2-trifluoroethoxy)phenyl]-2,3-dihydro-1H-pyrrolo[3,4-c]pyridin-1-one] | 99 |
| Cc1cc2c(c(-c3ccccc3OCC(F)(F)F)n1)CN(c1ccc(C(F)(F)C(C)(C)O)cc1)C2=O [Example 342, 2-[4-(1,1-difluoro-2-hydroxy-2-methylpropyl)phenyl]-6-methyl-4-[2-(2,2,2-trifluoroethoxy)phenyl]-2,3-dihydro-1H-pyrrolo [3,4-c]pyridin-1-one] | 100 |
| CC(C)(O)c1cc2c(c(-c3ccccc3OCC(F)(F)F)n1)CN(c1ccc(OCC(F)(F)F)cc1)C2=O [Example 343, 6-(2-hydroxypropan-2-yl)-4-[2-(2,2,2-trifluoroethoxy)phenyl]-2-[4-(2,2,2-trifluoroethoxy)phenyl]-2,3-dihydro-1H-pyrrolo[3,4-c]pyridin-1-one] | 100 |
| O=C1c2ccnc(-c3ccccc3OCC(F)(F)F)c2CN1c1ccc(O)cc1 [Example 347, 2-(4-hydroxyphenyl)-4-[2-(2,2,2-trifluoroethoxy)phenyl]-2,3-dihydro-1H-pyrrolo[3,4-c]pyridin-1-one] | 76 |
| Cc1cc2c(c(-c3ccccc3OCC(F)(F)F)n1)CN(c1ccc(C3(O)CCOCC3)cc1)C2=O [Example 348, 2-[4-(4-hydroxyoxan-4-yl)phenyl]-6-methyl-4-[2-(2,2,2-trifluoroethoxy)phenyl]-2,3-dihydro-1H-pyrrolo[3,4-c] pyridin-1-one] | 100 |
| C#CCCC1(CCOc2ccc(N3Cc4c(ccnc4-c4ccccc4OCC(F)(F)F)C3=O)cc2)N=N1 [Example 349, 2-(4-{2-[3-(but-3-yn-1-yl)-3H-diaziren-3-yl]ethoxy}phenyl)-4-[2-(2,2,2-trifluoroethoxy)phenyl]-2,3-dihydro-1H-pyrrolo[3,4-c]pyridin-1-one] | 100 |
| Cn1cc2c(c(-c3ccccc3OCC(F)(F)F)c1=O)CN(c1ccc(OCC(C)(C)O)cc1)C2=O [Example 350, 2-[4-(2-hydroxy-2-methylpropoxy)phenyl]-5-methyl-7-[2-(2,2,2-trifluoroethoxy)phenyl]-1H-pyrrolo[3,4-c]pyridine-3,6(2H,5H)-dione] | 100 |
| Cc1cc2c(c(-c3ccc(F)cc3OCC(F)(F)F)n1)CN(c1ccc(C(C)(C)O)cc1)C2=O [Example 351, 4-[4-fluoro-2-(2,2,2-trifluoroethoxy)phenyl]-2-[4-(2-hydroxypropan-2-yl)phenyl]-6-methyl-2,3-dihydro-1H-pyrrolo[3,4-c]pyridin-1-one] | 100 |

Reference: US12528802B2, “Heterocyclic compound” (Takeda Pharmaceutical Company Limited, priority 2019, dated 2026)
